Counter-ions that a name gives are not always drawn. Like-named read-outs stand apart in the source and are kept apart here. Values belong to the compound of their own block, whether it stands above or below them.
Experiments:
Assay type in all cases: cell-based
[1] = test system: sonic hedgehog pathway, TM3 mouse Leydig cells; experiment: Hedgehog pathway Gli-luciferase reporter assay in TM3 cells
Description: (§1) Mouse (TM3: mouse Leydig cells; S12: mouse embryonic mesenchymal cells) and human (Daoy: human medulloblastoma cell; HepM: human embryonic palatal mesenchymal cell) cell lines are used to screen small molecules for their ability to modulate the activity of the sonic hedgehog pathway (Table 1, Table 2, and Table 3). Stable hedgehog pathway reporter cell lines are established by specific antibiotic selection following transfection of a reporter plasmid containing a luciferase gene located directly downstream from the gli promoter. Consequently, any observable changes in cellular luciferase activity may be attributed to changes in sonic hedgehog pathway activity in mouse and human cells, respectively, since gli is the major by-product of this pathway. To calculate activity, we generate an eleven point dose curve for each compound using 1:3 dilutions in 96 well assay plates. Each plate tested also contains low and high control to establish maximal pathway activation so to establish/compare a percentage activation of each tested compound (AMAX) on respective plates. Also we calculate EC50 values, or a concentration where the pathway will be exactly 50% activated, for each tested compound to determine potency. In these cell lines, compounds that register >20% AMAX values are considered active.
(§2) Stable hedgehog pathway reporter cell lines are established following specific antibiotic selection following transfection of a reporter plasmid In short, typically cells are plated in MicroTiter-plates at 10,000-20,000 cells per well, in growth media (containing 10%-20% FBS). After 48-72 hrs (HGL and DGL respectively) the media in the assay plates is switched to low-serum containing media (0.5% FBS). At that time compounds are added (at 1-5 μM) to the assay plates, in the presence or absence of hedgehog protein (octyl-modified version; 1-5 ng/ml). After another 24 hrs of incubation, the media from the assay plates is discarded and replaced with luciferase assay-mix. Subsequently, plates are incubated at RT for ˜15-30 mins and then read in a luminometer. [note: addition of the Hedgehog protein, although not critical, will sensitize the assay allowing the identification of weak actives].

[2] = test system: sonic hedgehog pathway, HepM human embryonic palatal mesenchymal cells; experiment: Human hedgehog reporter assay HEPM-GliLuc (HGL); details: HepM human embryonic palatal mesenchymal cells, gli-luciferase reporter, Table 1
Description: as §1, §2

[3] = test system: sonic hedgehog pathway, Daoy human medulloblastoma cells; experiment: Human hedgehog reporter assay Daoy-GliLuc (DGL); details: gli-luciferase reporter, read-out: Daoy Avg. EC50
Description: as §1, §2

[4] = Daoy human medulloblastoma cells, Table 1

EC50 ([1]; Table 1): < 50 nM
EC50 [3, 4]: < 50 nM
Compound: CN[C@H]1CC[C@@H](N(Cc2cc(-c3cccc(C#N)c3)ccc2OC)C(=O)c2sc3ccccc3c2Cl)CC1 [Compound 304, 3-Chloro-benzo[b]thiophene-2-carboxylic acid (3′-cyano-4-methoxy-biphenyl-3-ylmethyl)-(4-methylamino-cyclohexyl)-amide hydrochloride]
EC50 [2]: < 50 nM

EC50 ([1]; Table 1): < 50 nM
EC50 [3, 4]: < 50 nM
Compound: CN[C@H]1CC[C@@H](N(Cc2cc(-c3ccc(OC(F)(F)F)cc3)ccc2OC)C(=O)c2sc3ccccc3c2Cl)CC1 [Compound 307, 3-Chloro-benzo[b]thiophene-2-carboxylic acid (4-methoxy-4′-trifluoromethoxy-biphenyl-3-ylmethyl)-(4-methylamino-cyclohexyl)-amide hydrochloride]

EC50 ([1]; Table 1): 50 to 250 nM
EC50 [3, 4]: < 50 nM
Compound: CCOc1ccc(-c2ccc(C(F)(F)F)cc2)cc1CN(C(=O)c1sc2ccccc2c1Cl)[C@H]1CC[C@@H](NC)CC1 [Compound 309, 3-Chloro-benzo[b]thiophene-2-carboxylic acid (4-ethoxy-4′-trifluoromethyl-biphenyl-3-ylmethyl)-(4-methylamino-cyclohexyl)-amide hydrochloride]

EC50 [3, 4]: 50 to 250 nM
Compound: CCOc1ccc(-c2ccc(OC)cc2)cc1CN(C(=O)c1sc2ccccc2c1Cl)[C@H]1CC[C@@H](NC)CC1 [Compound 312, 3-Chloro-benzo[b]thiophene-2-carboxylic acid (4-ethoxy-4′-methoxy-biphenyl-3-ylmethyl)-(4-methylamino-cyclohexyl)-amide hydrochloride]

EC50 ([1]; Table 1): 50 to 250 nM
EC50 [3, 4]: < 50 nM
Compound: CCOc1ccc(-c2ccccc2)cc1CN(C(=O)c1sc2ccccc2c1Cl)[C@H]1CC[C@@H](NC)CC1 [Compound 313, 3-Chloro-benzo[b]thiophene-2-carboxylic acid (4-ethoxy-biphenyl-3-ylmethyl)-(4-methylamino-cyclohexyl)-amide hydrochloride]

EC50 ([1]; Table 1): < 50 nM
Compound: CN[C@H]1CC[C@@H](N(Cc2cc(-c3ccc(C)nc3)ccc2OC)C(=O)c2sc3ccccc3c2Cl)CC1 [Compound 320, 3-Chloro-benzo[b]thiophene-2-carboxylic acid [2-methoxy-5-(6-methyl-pyridin-3-yl)-benzyl]-(4-methylamino-cyclohexyl)-amide dihydrochloride]
EC50 [2]: < 50 nM

EC50 ([1]; Table 1): 1000 to 2500 nM
EC50 [3, 4]: 50 to 250 nM
Compound: CN[C@H]1CC[C@@H](N(Cc2cc(-c3cnc(N(C)C)nc3)ccc2OC)C(=O)c2sc3ccccc3c2Cl)CC1 [Compound 321, 3-Chloro-benzo[b]thiophene-2-carboxylic acid [5-(2-dimethylamino-pyrimidin-5-yl)-2-methoxy-benzyl]-(4-methylamino-cyclohexyl)-amide dihydrochloride]

EC50 ([1]; Table 1): < 50 nM
EC50 [3, 4]: < 50 nM
Compound: CN[C@H]1CC[C@@H](N(Cc2cc(-c3ccc(CCl)cc3)ccc2OC)C(=O)c2sc3ccccc3c2Cl)CC1 [Compound 340, 3-Chloro-benzo[b]thiophene-2-carboxylic acid (4′-chloromethyl-4-methoxy-biphenyl-3-ylmethyl)-(4-methylamino-cyclohexyl)-amide hydrochloride]
EC50 [2]: < 50 nM

EC50 ([1]; Table 1): < 50 nM
EC50 [3, 4]: < 50 nM
Compound: CN[C@H]1CC[C@@H](N(Cc2cc(-c3ccc(C#N)cc3)ccc2OC)C(=O)c2sc3cccc(F)c3c2Cl)CC1 [Compound 366, 3-Chloro-4-fluoro-benzo[b]thiophene-2-carboxylic acid (4′-cyano-4-methoxy-biphenyl-3-ylmethyl)-(4-methylamino-cyclohexyl)-amide hydrochloride]

EC50 ([1]; Table 3): < 50 nM
EC50 ([3]; Daoy human cells, Table 3): < 50 nM
Compound: CN[C@H]1CC[C@H](N(Cc2cc(-c3ccc(C(O)C(F)(F)F)cc3)ccc2F)C(=O)c2sc3ccccc3c2Cl)CC1 (stereo partly drawn) [Compound 433, 3-Chloro-benzo[b]thiophene-2-carboxylic acid [4-fluoro-4′-(2,2,2-trifluoro-1-hydroxy-ethyl)-biphenyl-3-ylmethyl]-(4-methylamino-cyclohexyl)-amide hydrochloride]

EC50 ([1]; Table 1): < 50 nM
Compound: CN[C@H]1CC[C@@H](N(Cc2cc(-c3ccc(S(C)(=O)=O)cc3)ccc2OC)C(=O)c2sc3ccccc3c2Cl)CC1 [Compound R7, 3-Chloro-benzo[b]thiophene-2-carboxylic acid (4′-methanesulfonyl-4-methoxy-biphenyl-3-ylmethyl)-(4-methylamino-cyclohexyl)-amide hydrochloride]
EC50 [2]: < 50 nM

Further lines, the compound ahead of its results:

Compound: CNC(=O)c1cc(-c2ccc(OC)c(CN(C(=O)c3sc4c(F)ccc(F)c4c3Cl)[C@H]3CC[C@H](NC)CC3)c2)ccn1 [356 (R21), 4-(3-{([(3-Chloro-4,7-difluoro-benzo[b]thiophene-2-carbonyl)-(4-methylamino-cyclohexyl)-amino]-methyl}-4-methoxy-phenyl)-pyridine-2-carboxylic acid methylamidedihydrochloride]
EC50 ([1]; Table 1): < 50 nM
EC50 [2]: < 50 nM
EC50 [3, 4]: < 50 nM

Compound: CCOc1ccc(-c2cncnc2)cc1CN(C(=O)c1sc2ccccc2c1Cl)[C@H]1CC[C@@H](NC)CC1 [Compound 326, 3-Chloro-benzo[b]thiophene-2-carboxylic acid (2-ethoxy-5-pyrimidin-5-yl-benzyl)-(4-methylamino-cyclohexyl)-amide dihydrochloride]
EC50 ([1]; Table 1): 50 to 250 nM
EC50 [2]: 50 to 250 nM
EC50 [3, 4]: < 50 nM

Compound: CN[C@H]1CC[C@@H](N(Cc2cc(-c3cccc(C#N)c3)ccc2OC)C(=O)c2sc3c(F)ccc(F)c3c2Cl)CC1 [Compound 337, 3-Chloro-4,7-difluoro-benzo[b]thiophene-2-carboxylic acid (3′-cyano-4-methoxy-biphenyl-3-ylmethyl)-(4-methylamino-cyclohexyl)-amide hydrochloride]
EC50 ([1]; Table 1): < 50 nM
EC50 [2]: < 50 nM

Compound: CN[C@H]1CC[C@@H](N(Cc2cc(-c3ccc(C#N)cc3)ccc2OC)C(=O)c2sc3c(F)ccc(F)c3c2Cl)CC1 [Compound 351, 3-Chloro-4,7-difluoro-benzo[b]thiophene-2-carboxylic acid (4′-cyano-4-methoxy-biphenyl-3-ylmethyl)-(4-methylamino-cyclohexyl)-amide hydrochloride]
EC50 ([1]; Table 1): < 50 nM
EC50 [2]: < 50 nM

Compound: CN[C@H]1CC[C@@H](N(Cc2cc(-c3cccc(C(C)=O)c3)ccc2OC)C(=O)c2sc3c(F)ccc(F)c3c2Cl)CC1 [Compound 364, 3-Chloro-4,7-difluoro-benzo[b]thiophene-2-carboxylic acid (3′-acetyl-4-methoxy-biphenyl-3-ylmethyl)-(4-methylamino-cyclohexyl)-amide hydrochloride]
EC50 ([1]; Table 1): < 50 nM
EC50 [2]: < 50 nM

Compound: CN[C@H]1CC[C@@H](N(Cc2cc(-c3cccc(C#N)c3)ccc2OC)C(=O)c2sc3cccc(F)c3c2Cl)CC1 [Compound 365, 3-Chloro-4-fluoro-benzo[b]thiophene-2-carboxylic acid (3′-cyano-4-methoxy-biphenyl-3-ylmethyl)-(4-methylamino-cyclohexyl)-amide hydrochloride]
EC50 ([1]; Table 1): < 50 nM
EC50 [3, 4]: < 50 nM

Compound: CN[C@H]1CC[C@@H](N(Cc2cc(-c3ccnc(C(=O)O)c3)ccc2OC)C(=O)c2sc3c(F)ccc(F)c3c2Cl)CC1 [Compound R6, 4-(3-{[(3-Chloro-4,7-difluoro-benzo[b]thiophene-2-carbonyl)-(4-methylamino-cyclohexyl)-amino]-methyl}-4-methoxy-phenyl)-pyridine-2-carboxylic acid bis(trifluoroacetate)]
EC50 ([1]; Table 1): 50 to 250 nM
EC50 [2]: 50 to 250 nM
